Paper PMC9034004, “Methionine epimerization in cyclic peptides” (RSC Advances, 2021)

Columns and labels:
MDA-MB-231 cells = test: CytoTox Green cytotoxicity assay, MDA-MB-231; type: cell-based, Human; conditions: 100 μM, 48 h, 8000 cells per well, DMSO 2% as negative control
Procedure: A Forma Series II 3110 Water-Jacketed CO2 Incubator (Thermo Fisher Scientific) containing T-75 cell culture flasks at 37 °C under a humidified atmosphere was used to culture human breast cancer cell lines MDA-MB-231 and Sk-Br-3. 10% fetal bovine serum (FBS) and 1% penicillin under 5% CO2 were used to supplement McCoy's 5A Modified Medium to culture Sk-Br-3 cell line, and 10% FBS and 1% penicillin under 0% CO2 were used to supplement Leibovitz's L-15 Medium to culture MDA-MB-231 cell line. Each cell line's culture medium was changed every 2–3 days.
MDA-MB-231 and Sk-Br-3 cells were plated in 96-well plates at 8000 cells per well (final culture volume – 300 μL) and allowed to grow overnight for attachment before being treated with LO. LO stock solutions were prepared in DMSO at various concentrations of 200 μM; 100 μM; 50 μM, 25 μM, 12.5 μM. CytoTox Green reagent was added to wells during treatments. DMSO treated cells (final concentration at 2%) were used as a negative control. Following the manufacturer's recommended protocols, LOs cytotoxicity was continuously monitored at 24 h intervals for 120 h and calculated using the equation.Cytotoxicity (%) = [OD (experiment) − OD (vehicle control)]/[OD (maximum cell death) − OD (vehicle control)] × 100%

[1] = Alkaline treatment of LOs (base-catalysed Met epimerization, HPLC); type: physicochemical; conditions: LOs 1, 4 and 7 mixture treated with KOH in 70% aqueous ethanol, HPLC at 214 nm and 280 nm
Procedure: HPLC data was collected at a wavelength range of 190–300 nm using Agilent 1200 series HPLC system equipped with an autosampler, quaternary pump, diode array detector and degasser. Chromatographic separations for Marfey's derivatives were conducted on 100 mm × 4.6 mm i.d., reversed-phase Chromolith® Performance RP-18e columns (Merck KGaA, Darmstadt, Germany). The mobile phase consisted of H2O and 0.05 M triethyl phosphate buffer at a flow rate of 2 mL min^−1 (85 : 15 for 3 min, 85 : 15 to 60 : 40 in 18 min, to 10 : 90 in 0.5 min, 10 : 90 for 1 min, to 85 : 15 in 0.5 min, to equilibration for 2 min) with column compartment at 30 °C. Chromolith® High Resolution RP-18e columns 50 mm × 4.6 mm i.d. (Merck KGaA, Darmstadt, Germany) equipped with in-line filters were used for LO analytical characterization. H2O and CH3CN linear HPLC gradient with a flow rate of 2 mL min^−1 (50 : 50 to 20 : 80 for 1.8 min, 20 : 80 to 10 : 90 in 0.1 min, to 50 : 50 in 0.1 min, to equilibration for 1 min), and a column compartment at 32 °C was used.
LO (1 g) was dissolved in 70% aqueous ethanol (2.5 mL) and KOH (0.25 g) was added. The mixture was sonicated for 30 min. A portion of the mixture (∼1 mL) was transferred to a glass vial and extracted with EtOAc (∼3 mL) then settled. The upper EtOAc phase was transferred by pipette to a clean tube and dried under airflow. […]

Substance	% cytotoxicity (MDA-MB-231 cells)	new HPLC peak after KOH treatment (in words) [1]
[1−9-NαC]-linusorb B2 [LO 2]	~40%	
[1−9-NαC], DMet-linusorb B2 [LO 8]	~100%	
[1−9-NαC]-linusorb B3 [LO 1]		no extra peak was observed
